Test results from publication PMC10215404, “Effect of Indole-Containing Pyrazino[2,1-b]quinazoline-3,6-diones in the Virulence of Resistant Bacteria” (Antibiotics, 2023).
In brackets after ≈: the same amount, converted by molar mass. Several values for one entry are separate records, joined by “and”; a condition that tells them apart may be missing. Identical values can stand only once.

Key:
S. aureus MRSA 272123 = assay: MIC determination, broth microdilution; assay type: cell-based; conditions: Staphylococcus aureus
Description: Both reference and resistant strains used in this work were employed by our group for the screening of different families of compounds, such as xanthones and thioxanthones.

E. coli AG100 [1] = assay: Real-time ethidium bromide accumulation assay (efflux pump inhibition); conditions: compound at 50 μM, minute 60
E. coli AG100A = assay: as above; conditions: compound at 50 μM, minute 60
S. aureus 272123 = assay: as above; conditions: minute 60
E. coli AG100 [2] = assay: Biofilm formation, crystal violet method; assay type: cell-based, Escherichia coli; conditions: 50 μM
Method: The antibiofilm effect of the tested compounds was evaluated using the crystal violet method on E. coli AG100, E. coli AG100A, and MRSA 272123. […] CCCP was used as a positive control.
The biofilm-forming ability of the S. aureus strains was studied in 96-well microtiter plates using TSB broth in the presence of compounds. The biofilm-forming ability of the E. coli strains was studied in 96-well microtiter plates using LB broth in the presence of the compounds. […] The final volume was 200 μL in each well. The positive control was CCCP at 50 µM. Plates were incubated for 48 h at 30 °C with gentle shaking at 100 rpm. After the incubation period, the medium was removed and the plate was washed with water to remove unattached cells. A total of 200 μL CV (0.1% [v/v]) was added to each wells and incubated for 15 min at room temperature. CV was discarded from the wells and the plate was washed with water again. Then, 200 μL of 70% ethanol was added to each well and the biofilm formation was determined by measuring the OD at 600 nm using a Multiscan EX ELISA plate reader (Thermo Labsystems, Cheshire, WA, USA). The antibiofilm effect of the compounds was expressed as the percentage (%) decrease in biofilm formation.

[3] = tested on: NIH/3T3 mouse fibroblast cell line; assay: Cytotoxicity assay (MTT); assay type: cell-based; conditions: NIH3T3, 24 h
Method: The effects of increasing concentrations of compounds on cell growth were tested in 96-well flat-bottomed microtiter plates. The compounds were diluted in a volume of 100 μL of medium. Afterwards, 1 × 10^4 cells in 100 μL of medium were added to each well, with the exception of the medium control. In the case of NIH/3T3 cells, the compounds were added after seeding the cells at 37 °C overnight. The plates were incubated at 37 °C for 24 h; after the incubation period, 20 μL of MTT solution (from a 5 mg/mL stock) was added to each well. After 4 h of incubation at 37 °C, 100 μL of SDS solution (10% in 0.01 M HCl) was added to each well and the plates were incubated at 37 °C overnight. Cell growth was determined by measuring the optical density (OD) at 540 nm (ref. 630 nm) with a Multiscan EX ELISA reader. Inhibition of cell growth was determined as IC50 values, defined as the inhibitory dose that reduced the growth of the cells exposed to the tested compounds by 50%. IC50 values and the SD of triplicate experiments were calculated by using GraphPad Prism software version 5.00 for Windows with a nonlinear regression curve fit (GraphPad Software, San Diego, CA, USA; www.graphpad.com, accessed on 14 July 2022). Doxorubicin (from a 2 mg/mL stock solution, Teva Pharmaceuticals) was used as the positive control.

phytopathogenic fungi = tested on: phytopathogenic fungi; parameters: method as in PMID 22409377; conditions: several phytopathogenic fungi; cited from earlier work
Enterococcus faecalis = conditions: E. faecalis B3/101; cited from earlier work
E. faecalis B3/101 = assay: Antibiotic potentiation with vancomycin, broth microdilution; conditions: Enterococcus faecalis, B3/101, read-out: MIC of vancomycin alone obtained in this study

CC(C)C[C@@H]1NC(=O)[C@@H](Cc2c[nH]c3ccccc23)n2c1nc1ccc(Br)cc1c2=O [Compound 13b]
MIC (S. aureus MRSA 272123): > 100 µM | RFI ± SD (E. coli AG100 [1]): 0.52 ± 0.18 | RFI ± SD (E. coli AG100A): 0.12 ± 0.05 | RFI ± SD (S. aureus 272123; compound at 50 μM): 1.53 ± 0.02

Cc1ccc2nc3n(c(=O)c2c1)[C@H](Cc1c[nH]c2ccccc12)C(=O)N[C@H]3C(C)C [Compound 13c]
MIC (S. aureus MRSA 272123): 100 µM and 40 µg/mL | RFI ± SD (E. coli AG100 [1]): 0.17 ± 0.02 | RFI ± SD (E. coli AG100A): 0.13 ± 0.05 | RFI ± SD (S. aureus 272123; compound at 50 μM): 0.94 ± 0.04

O=C1N[C@@H](Cc2ccc(OCc3ccccc3)cc2)c2nc3c(Cl)cc(Cl)cc3c(=O)n2[C@@H]1Cc1c[nH]c2ccccc12 [Compound 13d]
MIC (S. aureus MRSA 272123): > 100 µM | decrease in biofilm formation (E. coli AG100 [2]): 61% | RFI ± SD (E. coli AG100 [1]): −0.01 ± 0.03 | RFI ± SD (E. coli AG100A): 0.55 ± 0.29 | RFI ± SD (S. aureus 272123; compound at 50 μM): 0.19 ± 0.08

COc1cccc2c1C(=O)c1c(O)c3c(c(O)c1C2=O)C[C@@](O)(C(=O)CO)C[C@@H]3O[C@H]1C[C@H](N)[C@H](O)[C@H](C)O1 [DOXO, Doxorubicin, reference compound]
IC50 [3]: 3.72 ± 0.15 µM

COC(=O)[C@H]1[C@H]2C[C@@H]3c4[nH]c5cc(OC)ccc5c4CCN3C[C@H]2C[C@@H](OC(=O)c2cc(OC)c(OC)c(OC)c2)[C@@H]1OC [RES, reserpine, reference compound]
RFI ± SD (S. aureus 272123; compound at 25 μM): 0.68 ± 0.05

C[C@@H]1N[C@H]2N(C1=O)c1ccccc1[C@@]2(O)C[C@@H]1C(=O)N[C@@H](C)c2nc3ccccc3c(=O)n21 [fumiquinazoline A]
MIC (phytopathogenic fungi): 12.5 to 25 µg/mL

C[C@H]1NC(=O)[C@@H](Cc2c[nH]c3ccccc23)n2c1nc1ccccc1c2=O [fumiquinazoline G]
MIC (phytopathogenic fungi): 12.5 to 25 µg/mL

CN[C@H](CC(C)C)C(=O)N[C@H]1C(=O)N[C@@H](CC(N)=O)C(=O)N[C@H]2C(=O)N[C@H]3C(=O)N[C@H](C(=O)N[C@H](C(=O)O)c4cc(O)cc(O)c4-c4cc3ccc4O)[C@H](O)c3ccc(c(Cl)c3)Oc3cc2cc(c3O[C@@H]2O[C@H](CO)[C@@H](O)[C@H](O)[C@H]2O[C@H]2C[C@](C)(N)[C@H](O)[C@H](C)O2)Oc2ccc(cc2Cl)[C@H]1O [vancomycin, reference compound]
MIC (Enterococcus faecalis): 1024 µg/mL (≈ 707 µM) | MIC (E. faecalis B3/101): 516 µg/mL
